From the supplement of paper PMC10307832

Key:
Test in all cases: relative viability (nuclei count vs DMSO), 5 days (fraction); higher = more cells survive
[1] = compound: CN(NC(=O)CC(=O)NN(C)C(=S)c1ccccc1)C(=S)c1ccccc1 [Elesclomol] + C[C@@H](Oc1cc(-c2cnn(C3CCNCC3)c2)cnc1N)c1c(Cl)ccc(F)c1Cl [Crizotinib] (partner 1 µM)
How it was run: (§1)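 Lung cancer cell lines in 1536-well plates were dosed by pin tool the day after seeding, either with one drug alone or with a fixed anchor-drug dose plus five library-drug doses (not always all listed) in √10 steps. After 5 days, cells were fixed and their nuclei stained in one step (final 0.05% Triton X-100, 1% formaldehyde, 1 ug/ml Hoechst), then counted on 4× images. Relative viability is the nuclei count in treated wells divided by that in vehicle wells. Values are medians of duplicate plates.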

[2] = compound: CN(NC(=O)CC(=O)NN(C)C(=S)c1ccccc1)C(=S)c1ccccc1 [Elesclomol] + Nc1nc2[nH]cc(CCc3ccc(C(=O)N[C@@H](CCC(=O)O)C(=O)O)cc3)c2c(=O)[nH]1 [Pemetrexed] (partner 0.2 µM)
How it was run: as §1

[3] = compound: CN(NC(=O)CC(=O)NN(C)C(=S)c1ccccc1)C(=S)c1ccccc1 [Elesclomol] + C[C@]1(O)C[C@@H](c2nc(-c3ccc4ccc(-c5ccccc5)nc4c3)c3c(N)nccn32)C1 [Linsitinib] (partner 1 µM)
How it was run: as §1

[4] = compound: CN(NC(=O)CC(=O)NN(C)C(=S)c1ccccc1)C(=S)c1ccccc1 [Elesclomol] + O=C(c1cc(Cc2n[nH]c(=O)c3ccccc23)ccc1F)N1CCN(C(=O)C2CC2)CC1 [Olaparib] (partner 8 µM)
How it was run: as §1

[5] = compound: CN(NC(=O)CC(=O)NN(C)C(=S)c1ccccc1)C(=S)c1ccccc1 [Elesclomol] + CC(=O)Nc1cccc(-n2c(=O)n(C3CC3)c(=O)c3c(Nc4ccc(I)cc4F)n(C)c(=O)c(C)c32)c1 [Trametinib] (partner 0.02 µM)
How it was run: as §1

Cell Line	relative viability ([1]; first compound 0.003162 µM)	relative viability ([1]; first compound 0.03162 µM)	relative viability ([1]; first compound 0.1 µM)	relative viability ([2]; first compound 0.003162 µM)	relative viability ([2]; first compound 0.01 µM)	relative viability ([2]; first compound 0.03162 µM)	relative viability ([2]; first compound 0.1 µM)	relative viability ([3]; first compound 0.003162 µM)	relative viability ([3]; first compound 0.03162 µM)	relative viability ([3]; first compound 0.1 µM)	relative viability ([4]; first compound 0.003162 µM)	relative viability ([4]; first compound 0.01 µM)	relative viability ([4]; first compound 0.03162 µM)	relative viability ([4]; first compound 0.1 µM)	relative viability ([5]; first compound 0.003162 µM)	relative viability ([5]; first compound 0.01 µM)	relative viability ([5]; first compound 0.03162 µM)	relative viability ([5]; first compound 0.1 µM)	relative viability ([1]; first compound 0.01 µM)	relative viability ([3]; first compound 0.01 µM)
NCI-H23	0.56	0.49	0.116	0.787	0.568	0.503	0.12	0.572	0.504	0.143	0.3	0.267	0.187	0.0908	0.426	0.404	0.208	0.117		
NCI-H322M	0.911	0.98	0.552	0.515	0.368	0.293	0.0948	0.977	0.916	0.606	0.665	0.572	0.388	0.208	0.497	0.423	0.298	0.217		
NCI-H358	0.215	0.204	0.171	0.159	0.123	0.142	0.133	0.279	0.152	0.156	0.758	0.346	0.107	0.138	0.107	0.103	0.0862	0.0746	0.151	0.234
NCI-H441	0.836	0.286	0.113	0.239	0.234	0.18	0.0576	0.386	0.276	0.0877	0.48	0.602	0.311	0.148	0.498	0.456	0.418	0.0766	0.461	0.511
NCI-H460	0.624	0.0112	0.0109	0.0667	0.0599	0.0708	0.0235	0.719	0.0104	0.01	0.421	0.251	0.194	0.0303	0.117	0.203	0.0139	0.0132	0.0306	0.123
NCI-H520	0.69	0.233	0.0848	0.724	0.779	0.335	0.109	1.04	0.354	0.0801	0.333	0.32	0.152	0.0887	0.789	0.65	0.301	0.137	0.713	0.912
NCI-H596	0.92	0.95	0.184	0.523	0.452	0.489	0.211	1.12	0.978	0.267	0.672	0.608	0.503	0.258	0.798	0.865	0.368	0.237	0.948	1.13
NCI-H647	1.1	0.39	0.0391	0.172	0.158	0.139	0.0481	1.1	0.753	0.0738	0.547	0.357	0.128	0.0704	0.553	0.347	0.235	0.148	0.813	0.801
NCI-H650	0.666	0.254	0.256	0.884	0.728	0.449	0.191	1.04	0.304	0.291	0.426	0.319	0.204	0.241	1.02	0.709	0.265	0.191	0.264	0.308
NCI-H661	0.991	0.361	0.283	0.884	0.596	0.38	0.331	0.55	0.169	0.145	0.702	0.464	0.271	0.186	0.565	0.404	0.314	0.244	0.619	0.242
NCI-H838	0.833	0.691	0.414	0.254	0.217	0.252	0.195	1.02	0.879	0.688	0.765	0.721	0.488	0.215	0.56	0.494	0.518	0.216	0.745	0.907
NCI-H1355	1.02	0.701	0.203	1.02	0.992	0.721	0.206	0.803	0.486	0.17	0.724	0.648	0.347	0.209	0.434	0.408	0.356	0.159	1.02	0.663
NCI-H1437	0.769	0.504	0.329	0.317	0.249	0.224	0.243	0.883	0.271	0.186	0.555	0.461	0.379	0.359	0.504	0.424	0.339	0.275	0.457	0.56
NCI-H1651	0.81	0.951	0.531	0.638	0.61	0.535	0.432	0.748	0.193	0.111	0.185	0.184	0.192	0.135	0.854	0.842	0.858	0.538	0.833	0.673
NCI-H1666	0.745	0.235	0.15	0.998	0.801	0.817	0.724	0.833	0.321	0.202	0.666	0.703	0.662	0.603	0.801	0.675	0.689	0.662	0.271	0.358
NCI-H1734	0.66	0.382	0.0924	0.436	0.507	0.234	0.11	0.907	0.8	0.154	0.586	0.519	0.165	0.0747	0.674	0.511	0.151	0.0873	0.586	0.745
